Experimental data published in paper PMC6485937 (Archives of toxicology, 2016).

Experiments:
[1] = tested on: D. japonica cholinesterase (DjChE); test: Kinetics of irreversible; assay type: biochemical, Dugesia japonica; conditions: for kr (bimolecular rate constant), rates of inhibition by OP oxons / kr (bimolecular rate constant), rates of inhibition by carbamylating agents: 1 mM ATCh, room temperature, mean± 95% confidence intervals; for Inhibition of ATCh or BTCh hydrolysis: 1 mM ATCh or BTCh
[2] = tested on: diethylphosphoryl DjChE (OP inhibited D. japonica cholinesterase); test: Reactivation of OP inhibited DjChE by oximes or NaF; assay type: biochemical, Dugesia japonica
[3] = tested on: D. japonica cholinesterase (DjChE); test: Substrate hydrolysis by DjChE in homogenates; assay type: biochemical, Dugesia japonica; conditions: mean ± SE of 6 independent experiments
[4] = in mammals; ref Radić et al. 2012; cited from earlier work
human AChE = human AChE in vitro; ref Radić et al. 2013; cited from earlier work

CCOP(=O)(OCC)Oc1ccc([N+](=O)[O-])cc1 [Paraoxon, paraoxon]
kr (bimolecular rate constant), rates of inhibition by OP oxons [1]: 1.7± 0.1 × 10^5 M^−1min^−1

[F-].[Na+] [NaF, sodium fluoride]
Reactivation rate of 10 mM NaF relative to 4 mM 2-PAM ([2]; 10 mM NaF vs 4 mM 2-PAM): four times faster | mean kobs of reactivation ([2]; 10 mM NaF, OP inhibited DjChE): 0.023 min⁻¹

CN(C)C(=O)Oc1ccc[n+](C)c1 [Pyridostigmine, pyridostigmine]
kr (bimolecular rate constant), rates of inhibition by carbamylating agents [1]: 0.10± 0.01 × 10^5 M^−1 min^−1

CCCC(=O)SCC[N+](C)(C)C [BTCh, butyrylthiocholine]
Km [3]: 59 ± 4 µM

chlorpyrifos oxon
kr (bimolecular rate constant), rates of inhibition by OP oxons [1]: 3.0± 0.3 × 10^5 M^−1min^−1

O=C(C=NO)NCCN1CCCCCC1 [RS194B]
Reactivation rate compared with 2-PAM ([2]; 4 mM oxime, diazinon oxon inhibited DjChE): significantly faster than 2-PAM | Crossing of the blood-brain barrier [4]: crosses the blood-brain barrier | Rate of reactivation relative to equimolar 2-PAM (human AChE): 2.5 times faster

pyridine-2-aldoxime [2-PAM]
mean kobs of reactivation ([2]; 4 mM 2-PAM, diazinon oxon inhibited DjChE): 0.0058 min⁻¹

CC(C)NP(=O)(NC(C)C)OP(=O)(NC(C)C)NC(C)C [iso-OMPA, Tetraisopropyl pyrophosphoramide]
Inhibition of ATCh or BTCh hydrolysis ([1]; 5 mM iso-OMPA): only slow inhibition | Inhibition of ATCh or BTCh hydrolysis ([1]; incubation with up to 1 mM iso-OMPA): unable to significantly inhibit

CNC(=O)Oc1ccc2c(c1)[C@]1(C)CCN(C)[C@@H]1N2C [Physostigmine, physostigmine]
kr (bimolecular rate constant), rates of inhibition by carbamylating agents [1]: 0.32± 0.02 × 10^5 M^−1 min^−1

COP(=O)(OC)OC=C(Cl)Cl [Dichlorvos, dichlorvos]
kr (bimolecular rate constant), rates of inhibition by OP oxons [1]: 9.1± 0.9 × 10^5 M^−1min^−1

CC(=O)SCC[N+](C)(C)C [ATCh, acetylthiocholine]
Km [3]: 123 ± 6 µM

CNC(=O)Oc1cccc2ccccc12 [Carbaryl, carbaryl]
kr (bimolecular rate constant), rates of inhibition by carbamylating agents [1]: 0.00064± 0.00008 × 10^5 M^−1 min^−1

CN(C)C(=O)Oc1cccc([N+](C)(C)C)c1 [Neostigmine, neostigmine]
kr (bimolecular rate constant), rates of inhibition by carbamylating agents [1]: 1.3±0.2 × 10^5 M^−1 min^−1

CCOC(=O)CC(SP(=O)(OC)OC)C(=O)OCC (stereo not shown) [Malaoxon, malaoxon]
kr (bimolecular rate constant), rates of inhibition by OP oxons [1]: 0.14± 0.01 × 10^5 M^−1min^−1

CCOP(=O)(OCC)Oc1cc(C)nc(C(C)C)n1 [Diazinon oxon, diazinon oxon]
kr (bimolecular rate constant), rates of inhibition by OP oxons [1]: 22±2 × 10^5 M^−1min^−1
